Measured values reported in ChEMBL document CHEMBL3885881, “DrugMatrix”.

Species on record: Rattus norvegicus
Assay: DrugMatrix - Regimen: Daily Repeat
Format: toxicity, organism-based, Sprague-Dawley
Set-up: regimen Daily Repeat, gender Male, age 6-8 weeks
Conditions: in vivo, po, route oral GAVAGE, vehicle .5 % CMC; for ABSOLUTE BASOPHIL / ABSOLUTE EOSINOPHIL / ABSOLUTE LYMPHOCYTE / ABSOLUTE MONOCYTE / ABSOLUTE SEGMENTED NEUTROPHIL / BASOPHIL / EOSINOPHIL / ERYTHROCYTE COUNT / HEMATOCRIT / HEMOGLOBIN / LEUKOCYTE COUNT / LYMPHOCYTE / MEAN CORPUSCULAR HEMOGLOBIN / MEAN CORPUSCULAR HEMOGLOBIN CONCENTRATION / MEAN CORPUSCULAR VOLUME / MONOCYTE / NEUTROPHIL / NUCLEATED RED BLOOD CELLS / PLATELET COUNT: tissue Blood; for ALANINE AMINOTRANSFERASE / ALBUMIN / ALKALINE PHOSPHATASE / ASPARTATE AMINOTRANSFERASE / BLOOD UREA NITROGEN / CARBON DIOXIDE / CHLORIDE / CHOLESTEROL / CREATINE PHOSPHOKINASE / CREATININE / GLUCOSE / LACTATE DEHYDROGENASE / LIPASE / PHOSPHORUS / POTASSIUM / SODIUM / TOTAL BILIRUBIN / TOTAL PROTEIN / URIC ACID: tissue Plasma
[1] = 88 mg/kg, 72 h, dose level Low, time 3 day
[2] = 88 mg/kg, 120 h, dose level Low, time 5 day
[3] = 1500 mg/kg, 72 h, dose level High, time 3 day
[4] = 1500 mg/kg, 120 h, dose level High, time 5 day

Structure (SMILES): NC(=O)c1cnccn1 [PYRAZINAMIDE]
- ABSOLUTE BASOPHIL [1]: 0 CELLS/uL
- ABSOLUTE EOSINOPHIL [1]: 30.67 CELLS/uL
- ABSOLUTE LYMPHOCYTE [1]: 12250.33 CELLS/uL
- ABSOLUTE MONOCYTE [1]: 470.67 CELLS/uL
- ABSOLUTE SEGMENTED NEUTROPHIL [1]: 1315 CELLS/uL
- BASOPHIL [1]: 0%
- EOSINOPHIL [1]: 0.33%
- ERYTHROCYTE COUNT [1]: 5.55 x10E6/uL
- HEMATOCRIT [1]: 35.93%
- HEMOGLOBIN [1]: 13.4 G/DL
- LEUKOCYTE COUNT [1]: 14.07 x10E3/uL
- LYMPHOCYTE [1]: 87%
- MEAN CORPUSCULAR HEMOGLOBIN [1]: 24.2 pg
- MEAN CORPUSCULAR HEMOGLOBIN CONCENTRATION [1]: 37.27 G/DL
- MEAN CORPUSCULAR VOLUME [1]: 64.83 fL
- MONOCYTE [1]: 3%
- NEUTROPHIL [1]: 9.67%
- NUCLEATED RED BLOOD CELLS [1]: 0 /100WBC
- PLATELET COUNT [1]: 1204.33 x10E3/uL
- ALANINE AMINOTRANSFERASE [1]: 44.33 u/L
- ALBUMIN [1]: 4.73 G/DL
- ALKALINE PHOSPHATASE [1]: 375 u/L
- ASPARTATE AMINOTRANSFERASE [1]: 85.33 u/L
- BLOOD UREA NITROGEN [1]: 14.67 mg/dL
- CARBON DIOXIDE [1]: 22.67 mmol/L
- CHLORIDE [1]: 102.67 MEQ/L
- CHOLESTEROL [1]: 74.33 mg/dL
- CREATINE PHOSPHOKINASE [1]: 282.33 u/L
- CREATININE [1]: 0.22 mg/dL
- GLUCOSE [1]: 147 mg/dL
- LACTATE DEHYDROGENASE [1]: 427 u/L
- LIPASE [1]: 10 u/L
- PHOSPHORUS [1]: 12.4 mg/dL
- POTASSIUM [1]: 7.05 MEQ/L
- SODIUM [1]: 145.67 MEQ/L
- TOTAL BILIRUBIN [1]: 0.27 mg/dL
- TOTAL PROTEIN [1]: 5.97 G/DL
- URIC ACID [1]: 2.43 mg/dL
- ABSOLUTE BASOPHIL [2]: 0 CELLS/uL
- ABSOLUTE EOSINOPHIL [2]: 154 CELLS/uL
- ABSOLUTE LYMPHOCYTE [2]: 11236 CELLS/uL
- ABSOLUTE MONOCYTE [2]: 491 CELLS/uL
- ABSOLUTE SEGMENTED NEUTROPHIL [2]: 1385.67 CELLS/uL
- BASOPHIL [2]: 0%
- EOSINOPHIL [2]: 1%
- ERYTHROCYTE COUNT [2]: 5.75 x10E6/uL
- HEMATOCRIT [2]: 35.9%
- HEMOGLOBIN [2]: 13.43 G/DL
- LEUKOCYTE COUNT [2]: 13.27 x10E3/uL
- LYMPHOCYTE [2]: 85%
- MEAN CORPUSCULAR HEMOGLOBIN [2]: 23.4 pg
- MEAN CORPUSCULAR HEMOGLOBIN CONCENTRATION [2]: 37.47 G/DL
- MEAN CORPUSCULAR VOLUME [2]: 62.43 fL
- MONOCYTE [2]: 3.67%
- NEUTROPHIL [2]: 10.33%
- NUCLEATED RED BLOOD CELLS [2]: 0.33 /100WBC
- PLATELET COUNT [2]: 1159.33 x10E3/uL
- ALANINE AMINOTRANSFERASE [2]: 36 u/L
- ALBUMIN [2]: 4.27 G/DL
- ALKALINE PHOSPHATASE [2]: 325.33 u/L
- ASPARTATE AMINOTRANSFERASE [2]: 95.33 u/L
- BLOOD UREA NITROGEN [2]: 20 mg/dL
- CARBON DIOXIDE [2]: 24 mmol/L
- CHLORIDE [2]: 108.33 MEQ/L
- CHOLESTEROL [2]: 66 mg/dL
- CREATINE PHOSPHOKINASE [2]: 516 u/L
- CREATININE [2]: 0.22 mg/dL
- GLUCOSE [2]: 133.67 mg/dL
- LACTATE DEHYDROGENASE [2]: 846.33 u/L
- LIPASE [2]: 9 u/L
- PHOSPHORUS [2]: 11.63 mg/dL
- POTASSIUM [2]: 5.99 MEQ/L
- SODIUM [2]: 145.83 MEQ/L
- TOTAL BILIRUBIN [2]: 0.13 mg/dL
- TOTAL PROTEIN [2]: 6.07 G/DL
- URIC ACID [2]: 1.4 mg/dL
- ABSOLUTE BASOPHIL [3]: 0 CELLS/uL
- ABSOLUTE EOSINOPHIL [3]: 133 CELLS/uL
- ABSOLUTE LYMPHOCYTE [3]: 8872.33 CELLS/uL
- ABSOLUTE MONOCYTE [3]: 166.33 CELLS/uL
- ABSOLUTE SEGMENTED NEUTROPHIL [3]: 1061.67 CELLS/uL
- BASOPHIL [3]: 0%
- EOSINOPHIL [3]: 1.33%
- ERYTHROCYTE COUNT [3]: 5.4 x10E6/uL
- HEMATOCRIT [3]: 35.87%
- HEMOGLOBIN [3]: 13.37 G/DL
- LEUKOCYTE COUNT [3]: 10.23 x10E3/uL
- LYMPHOCYTE [3]: 86.67%
- MEAN CORPUSCULAR HEMOGLOBIN [3]: 24.8 pg
- MEAN CORPUSCULAR HEMOGLOBIN CONCENTRATION [3]: 37.33 G/DL
- MEAN CORPUSCULAR VOLUME [3]: 66.4 fL
- MONOCYTE [3]: 1.67%
- NEUTROPHIL [3]: 10.33%
- NUCLEATED RED BLOOD CELLS [3]: 0 /100WBC
- PLATELET COUNT [3]: 1418.67 x10E3/uL
- ALANINE AMINOTRANSFERASE [3]: 48.33 u/L
- ALBUMIN [3]: 4.13 G/DL
- ALKALINE PHOSPHATASE [3]: 315.67 u/L
- ASPARTATE AMINOTRANSFERASE [3]: 85.67 u/L
- BLOOD UREA NITROGEN [3]: 16.67 mg/dL
- CARBON DIOXIDE [3]: 28 mmol/L
- CHLORIDE [3]: 103.33 MEQ/L
- CHOLESTEROL [3]: 73 mg/dL
- CREATINE PHOSPHOKINASE [3]: 136.33 u/L
- CREATININE [3]: 0.15 mg/dL
- GLUCOSE [3]: 153 mg/dL
- LACTATE DEHYDROGENASE [3]: 76 u/L
- LIPASE [3]: 9 u/L
- PHOSPHORUS [3]: 10.47 mg/dL
- POTASSIUM [3]: 5.73 MEQ/L
- SODIUM [3]: 146 MEQ/L
- TOTAL BILIRUBIN [3]: 0.23 mg/dL
- TOTAL PROTEIN [3]: 5.77 G/DL
- URIC ACID [3]: 1.47 mg/dL
- ABSOLUTE BASOPHIL [4]: 0 CELLS/uL
- ABSOLUTE EOSINOPHIL [4]: 88 CELLS/uL
- ABSOLUTE LYMPHOCYTE [4]: 11940 CELLS/uL
- ABSOLUTE MONOCYTE [4]: 519 CELLS/uL
- ABSOLUTE SEGMENTED NEUTROPHIL [4]: 1353 CELLS/uL
- BASOPHIL [4]: 0%
- EOSINOPHIL [4]: 0.67%
- ERYTHROCYTE COUNT [4]: 6.59 x10E6/uL
- HEMATOCRIT [4]: 40.1%
- HEMOGLOBIN [4]: 14.83 G/DL
- LEUKOCYTE COUNT [4]: 13.9 x10E3/uL
- LYMPHOCYTE [4]: 86%
- MEAN CORPUSCULAR HEMOGLOBIN [4]: 22.5 pg
- MEAN CORPUSCULAR HEMOGLOBIN CONCENTRATION [4]: 37.03 G/DL
- MEAN CORPUSCULAR VOLUME [4]: 60.83 fL
- MONOCYTE [4]: 3.67%
- NEUTROPHIL [4]: 9.67%
- NUCLEATED RED BLOOD CELLS [4]: 0 /100WBC
- PLATELET COUNT [4]: 1142.67 x10E3/uL
- ALANINE AMINOTRANSFERASE [4]: 56.33 u/L
- ALBUMIN [4]: 4.53 G/DL
- ALKALINE PHOSPHATASE [4]: 308 u/L
- ASPARTATE AMINOTRANSFERASE [4]: 93.33 u/L
- BLOOD UREA NITROGEN [4]: 16.67 mg/dL
- CARBON DIOXIDE [4]: 25.33 mmol/L
- CHLORIDE [4]: 104.5 MEQ/L
- CHOLESTEROL [4]: 70.67 mg/dL
- CREATINE PHOSPHOKINASE [4]: 254.33 u/L
- CREATININE [4]: 0.17 mg/dL
- GLUCOSE [4]: 185.67 mg/dL
- LACTATE DEHYDROGENASE [4]: 177.33 u/L
- LIPASE [4]: 9 u/L
- PHOSPHORUS [4]: 12.47 mg/dL
- POTASSIUM [4]: 5.72 MEQ/L
- SODIUM [4]: 147.8 MEQ/L
- TOTAL BILIRUBIN [4]: 0.2 mg/dL
- TOTAL PROTEIN [4]: 6.07 G/DL
- URIC ACID [4]: 1.37 mg/dL
